“Also recorded” adds a separate entry of the source.
How the values were obtained:
[1] = Stability evaluated on keratinocyte cultures; assay type: in vitro ADME; conditions: human, human neonatal keratinocyte cultures; keratinocyte cultures; 2 μM in medium CNT-057 with 0.1% pluronic acid, 0.1% DMSO; degradation kinetics over 24 hours; LC/MS/MS; read-out: half-life time (t1/2) (converted)
Description: (§1) The stability on keratinocyte cultures is evaluated using human neonatal keratinocytes (Cell'N Tech) cultured in a 75 cm^2 flask and detached at 90-100% of confluence with vegetable trypsin (trypLE GIBCO). The compound of formula (I) was tested at 2 μM in the medium CNT-057 (Cell'N Tech) supplemented with 0.1% pluronic acid in 24-well plates. The final DMSO concentration is 0.1%. Degradation kinetics are performed with a Tecan EVO robot over 24 hours. The samples taken are then assayed by LC/MS/MS (Micromass) in comparison with a calibration range of the test product, prepared under the same conditions as the samples (⅓ culture medium and ⅔ methanol). The chromatographic conditions are optimized for each product. An assay of the appearance of metronidazole is also performed using these same samples.

[2] = tested on: human neonatal keratinocytes; experiment: Stability evaluated on keratinocyte cultures; assay type: in vitro ADME; conditions: over 24 hours
Description: as §1

Row | Structure (SMILES) | melting point | half-life at 2 μM [1] | stability / hydrolysis of the ester on keratinocyte cultures (in words) [2]
1 | Cc1ncc([N+](=O)[O-])n1CCOC(=O)Cc1ccccc1Nc1c(Cl)cccc1Cl [compound of formula (I), 2-(2-methyl-5-nitroimidazol-1-yl)ethyl [2-(2,6-dichlorophenylamino)phenyl]acetate] | 122 to 124 °C | 480 min | specifically cleaved in keratinocytes
2 | Cc1ncc([N+](=O)[O-])n1CCOC(=O)c1cc(-c2ccc(F)cc2F)ccc1O [metronidazole ester with diflunisal] |  |  | stable in the presence of keratinocytes; also recorded: do not become hydrolysed
3 | COc1ccc2c(c1)c(CC(=O)OCCn1c([N+](=O)[O-])cnc1C)c(C)n2C(=O)c1ccc(Cl)cc1 [metronidazole ester with indomethacin] |  |  | stable in the presence of keratinocytes; also recorded: do not become hydrolysed
4 | Cc1ncc([N+](=O)[O-])n1CCOC(=O)C1CCn2c(C(=O)c3ccccc3)ccc21 (stereo not shown) [metronidazole ester with ketorolac] |  |  | stable in the presence of keratinocytes; also recorded: do not become hydrolysed
5 | Cc1ncc([N+](=O)[O-])n1CCOC(=O)c1cccnc1Nc1cccc(C(F)(F)F)c1 [metronidazole ester with niflumic acid] |  |  | stable in the presence of keratinocytes; also recorded: do not become hydrolysed

Reference: patent publication US8796325B2, “Metronidazole esters for treating rosacea” (Galderma Research & Development, priority 2010, dated 2014)
